{"source": "patent US11214803B2", "about": "“Modulators of YAP1 expression” (Ionis Pharmaceuticals, Inc., priority 2019, dated 2022)", "note": "Strand notation (5' to 3'): a small letter for the sugar, then the base; units joined by * are phosphorothioate-linked, units joined directly phosphodiester-linked; [ ] holds rarer units or linkages, { } end groups; capitals alone tell only the bases. k = constrained ethyl (cEt); [5mC] = 5-methylcytosine; d = 2'-deoxy (DNA)"}
{"tested_on": "Yap1 mRNA", "experiment": "Antisense inhibition of human Yap1 in A-431 cells by cEt gapmers, single dose (Example 1, RTS4814)", "format": "cell-based", "details": "A-431 cells, 5,000 cells per well, free uptake, 2,000 nM modified oligonucleotide, approx. 48 hours, RTS4814, normalized to RIBOGREEN; Table 3", "how_it_was_run": "(§1)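 Free uptake of 2,000 nM 3-10-3 cEt gapmer (16-mer, full phosphorothioate, 5-methylcytosines) in A-431 cells for ~48 h. Yap1 mRNA quantified by qRT-PCR with set RTS4814, normalized to total RNA (RiboGreen), and expressed as % of untreated control; asterisked values target the amplicon region.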", "units": {"YAP1 (% UTC)": "% UTC"}}
{"substance": "715492 (antisense kG*k[5mC]*kT*dA*dG*d[5mC]*dT*dG*dG*dT*dG*d[5mC]*d[5mC]*kA*k[5mC]*kT) [Compound 715492]", "YAP1 (% UTC)": 76}
{"substance": "715618 (antisense kA*kT*kA*dA*dG*dA*d[5mC]*dG*dG*dA*dT*dA*dA*kA*kA*kA) [Compound 715618]", "YAP1 (% UTC)": 101}
{"substance": "715510 (antisense kA*kT*kT*dT*dG*d[5mC]*dT*dG*dT*dG*d[5mC]*dT*dG*kG*kG*kA) [Compound 715510]", "YAP1 (% UTC)": 22}
{"substance": "715627 (antisense k[5mC]*kT*kA*d[5mC]*d[5mC]*dT*dG*dA*d[5mC]*dA*dT*dT*dT*kT*kG*kG) [Compound 715627]", "YAP1 (% UTC)": 88}
{"substance": "715528 (kA*kA*kA*d[5mC]*d[5mC]*dT*dG*dA*dT*d[5mC]*d[5mC]*dT*dT*kT*kG*kA; antisense) [Compound 715528]", "YAP1 (% UTC)": 98}
{"substance": "715591 (k[5mC]*kT*kT*dT*dG*dG*d[5mC]*dA*dG*dA*dG*dA*dT*kA*kA*kA; antisense) [Compound 715591]", "YAP1 (% UTC)": 41}
{"substance": "715594 (antisense kA*kT*kA*dT*dT*dT*d[5mC]*dT*dT*dT*dG*dG*d[5mC]*kA*kG*kA) [Compound 715594]", "YAP1 (% UTC)": 39}
{"substance": "715516 (k[5mC]*k[5mC]*kT*dA*dT*dG*dA*dG*dT*d[5mC]*dA*dA*d[5mC]*k[5mC]*kT*kG; antisense) [Compound 715516]", "YAP1 (% UTC)": 77}
{"substance": "715606 (antisense kA*k[5mC]*k[5mC]*dA*dT*dA*dG*d[5mC]*dA*d[5mC]*dA*dG*dA*kA*kT*kT) [Compound 715606]", "YAP1 (% UTC)": 88}
{"substance": "715459 (antisense k[5mC]*kT*k[5mC]*dG*dA*dG*dA*dG*dT*dG*dA*dT*dA*kG*kG*kT) [Compound 715459]", "YAP1 (% UTC)": 93}
{"substance": "715495 (antisense kA*k[5mC]*kA*dG*dA*dG*dG*dT*dG*d[5mC]*dT*dA*dG*k[5mC]*kT*kG) [Compound 715495]", "YAP1 (% UTC)": 80}
{"substance": "715621 (antisense kT*kA*kA*dA*dA*dA*dA*dT*dA*dA*dG*dA*d[5mC]*kG*kG*kA) [Compound 715621]", "YAP1 (% UTC)": 106}
{"substance": "715633 (kG*kT*kG*dA*dT*dA*dG*dG*dT*dG*d[5mC]*d[5mC]*dA*k[5mC]*kT*kA; antisense) [Compound 715633]", "YAP1 (% UTC)": 78}
{"tested_on": "Yap1 mRNA", "experiment": "Antisense inhibition of human Yap1 in A-431 cells by cEt gapmers, single dose (Example 1, RTS4814)", "format": "cell-based", "details": "Table 1; A-431 cells, free uptake, 2,000 nM, approximately 48 hours, RTS4814; Yap1 mRNA relative to untreated control cells", "how_it_was_run": "as §1", "units": {"YAP1 (% UTC)": "% UTC"}}
{"substance": "715622 (antisense kA*kG*kT*dA*dA*dA*dA*dA*dA*dT*dA*dA*dG*kA*k[5mC]*kG) [Compound 715622]", "YAP1 (% UTC)": 137}
{"substance": "715601 (antisense kA*kG*kA*dA*dT*dT*d[5mC]*d[5mC]*d[5mC]*dA*dA*dG*d[5mC]*kT*kA*k[5mC]) [Compound 715601]", "YAP1 (% UTC)": 106}
{"substance": "715526 (kA*k[5mC]*kT*dT*dA*d[5mC]*dT*dT*dT*dA*dA*dG*dA*kA*kG*kT; antisense) [Compound 715526]", "YAP1 (% UTC)": 112}
{"substance": "715550 (kA*kG*kG*dA*dA*dG*dT*dT*dG*dT*dT*dG*dA*k[5mC]*k[5mC]*kA; antisense) [Compound 715550]", "YAP1 (% UTC)": 70}
{"substance": "715481 (antisense kT*kT*kG*dG*dA*dA*dA*d[5mC]*d[5mC]*dA*dT*dT*dA*kT*kT*kA) [Compound 715481]", "YAP1 (% UTC)": 66}
{"substance": "715592 (kT*kT*k[5mC]*dT*dT*dT*dG*dG*d[5mC]*dA*dG*dA*dG*kA*kT*kA; antisense) [Compound 715592]", "YAP1 (% UTC)": 89}
{"substance": "715451 (antisense k[5mC]*kA*kT*dT*dG*dT*dT*d[5mC]*dT*d[5mC]*dA*dA*dT*kT*k[5mC]*k[5mC]) [Compound 715451]", "YAP1 (% UTC)": 75}
{"substance": "715430 (kA*kT*k[5mC]*d[5mC]*dT*dG*dA*dG*dT*d[5mC]*dA*dT*dG*kG*k[5mC]*kT; antisense) [Compound 715430]", "YAP1 (% UTC)": 118}
{"substance": "715619 (antisense kA*kA*kA*dT*dA*dA*dG*dA*d[5mC]*dG*dG*dA*dT*kA*kA*kA) [Compound 715619]", "YAP1 (% UTC)": 114}
{"substance": "715607 (antisense kT*k[5mC]*kA*d[5mC]*d[5mC]*dA*dT*dA*dG*d[5mC]*dA*d[5mC]*dA*kG*kA*kA) [Compound 715607]", "YAP1 (% UTC)": 116}
{"substance": "715442 (antisense k[5mC]*kA*k[5mC]*dT*dG*dG*dA*dG*d[5mC]*dA*d[5mC]*dT*d[5mC]*kT*kG*kA) [Compound 715442]", "YAP1 (% UTC)": 64}
{"substance": "715529 (kT*kG*kA*dA*dA*d[5mC]*d[5mC]*dT*dG*dA*dT*d[5mC]*d[5mC]*kT*kT*kT; antisense) [Compound 715529]", "YAP1 (% UTC)": 148}
{"substance": "715523 (kA*kT*k[5mC]*dA*dG*dT*dA*d[5mC]*dT*dG*dG*d[5mC]*d[5mC]*kT*kA*kT; antisense) [Compound 715523]", "YAP1 (% UTC)": 32}
{"tested_on": "Yap1 mRNA", "experiment": "Antisense inhibition of human Yap1 in A-431 cells by cEt gapmers, single dose (Example 1, RTS4814)", "format": "cell-based", "details": "Table 2; A-431 cells, free uptake, 2,000 nM, approximately 48 hours, RTS4814; Yap1 mRNA relative to untreated control cells", "how_it_was_run": "as §1", "units": {"YAP1 (% UTC)": "% UTC"}}
{"substance": "715431 (k[5mC]*k[5mC]*kA*dT*d[5mC]*d[5mC]*dT*dG*dA*dG*dT*d[5mC]*dA*kT*kG*kG; antisense) [Compound 715431]", "YAP1 (% UTC)": 99}
{"substance": "715569 (k[5mC]*kA*kA*dA*dG*dG*dT*dA*dG*dG*dA*dT*dA*kA*kA*kT; antisense) [Compound 715569]", "YAP1 (% UTC)": 122}
{"substance": "715506 (antisense kA*kA*kA*dT*dT*dG*dG*dT*dT*dT*dA*dT*dT*kG*kT*kA) [Compound 715506]", "YAP1 (% UTC)": 112}
{"substance": "715497 (antisense kA*kA*k[5mC]*d[5mC]*d[5mC]*dT*dT*dG*dA*dA*dA*dA*dT*kA*kA*kG) [Compound 715497]", "YAP1 (% UTC)": 155}
{"substance": "715626 (antisense kA*k[5mC]*k[5mC]*dT*dG*dA*d[5mC]*dA*dT*dT*dT*dT*dG*kG*kA*kG) [Compound 715626]", "YAP1 (% UTC)": 64}
{"substance": "715584 (kG*kG*kT*d[5mC]*dT*dG*dG*dA*dA*d[5mC]*dA*dG*dA*kT*kT*kA; antisense) [Compound 715584]", "YAP1 (% UTC)": 96}
{"substance": "715476 (antisense kA*kA*kA*dG*d[5mC]*dT*dT*dT*d[5mC]*dT*dT*dT*dA*kT*k[5mC]*kT) [Compound 715476]", "YAP1 (% UTC)": 84}
{"substance": "715422 (kA*kT*kG*dT*dT*dG*dT*dT*dG*dT*d[5mC]*dT*dG*kA*kT*k[5mC]; antisense) [Compound 715422]", "YAP1 (% UTC)": 57}
{"substance": "715527 (kT*k[5mC]*kA*d[5mC]*dT*dT*dA*d[5mC]*dT*dT*dT*dA*dA*kG*kA*kA; antisense) [Compound 715527]", "YAP1 (% UTC)": 111}
{"substance": "715551 (kA*kT*kA*dG*dG*dA*dA*dG*dT*dT*dG*dT*dT*kG*kA*k[5mC]; antisense) [Compound 715551]", "YAP1 (% UTC)": 82}
{"substance": "715605 (antisense k[5mC]*kA*kT*dA*dG*d[5mC]*dA*d[5mC]*dA*dG*dA*dA*dT*kT*k[5mC]*k[5mC]) [Compound 715605]", "YAP1 (% UTC)": 112}
{"substance": "715587 (kT*kG*kA*dA*dA*dA*dG*dG*dT*d[5mC]*dT*dG*dG*kA*kA*k[5mC]; antisense) [Compound 715587]", "YAP1 (% UTC)": 79}
{"substance": "715548 (kA*kG*kT*dT*dG*dT*dT*dG*dA*d[5mC]*d[5mC]*dA*dA*k[5mC]*kT*kA; antisense) [Compound 715548]", "YAP1 (% UTC)": 117}
{"substance": "715485 (antisense kA*kA*kT*dA*d[5mC]*dT*d[5mC]*dT*dT*dT*dG*dG*dA*kA*kA*k[5mC]) [Compound 715485]", "YAP1 (% UTC)": 72}
{"substance": "715503 (antisense k[5mC]*k[5mC]*k[5mC]*d[5mC]*dA*dG*dA*d[5mC]*dT*dT*dA*dA*dT*kT*k[5mC]*kA) [Compound 715503]", "YAP1 (% UTC)": 136}
